For three molecules, IC50 results are on record in patent US7253197B2, “Aminothiazole derivatives” (Hoffmann-La Roche Inc., priority 2002, dated 2007).

Molecules are shown by their SMILES.

The target of this test is T1, recombinant mouse NPY5-receptor (mNPY5) (Mus musculus, UniProt O70342).
T1 construct: The full-length cDNA encoding the mouse NPY5 (mNPY5) receptor was amplified from mouse brain cDNA; expressed in transfected cells; membrane preparation
T1 sequence (O70342 1-466): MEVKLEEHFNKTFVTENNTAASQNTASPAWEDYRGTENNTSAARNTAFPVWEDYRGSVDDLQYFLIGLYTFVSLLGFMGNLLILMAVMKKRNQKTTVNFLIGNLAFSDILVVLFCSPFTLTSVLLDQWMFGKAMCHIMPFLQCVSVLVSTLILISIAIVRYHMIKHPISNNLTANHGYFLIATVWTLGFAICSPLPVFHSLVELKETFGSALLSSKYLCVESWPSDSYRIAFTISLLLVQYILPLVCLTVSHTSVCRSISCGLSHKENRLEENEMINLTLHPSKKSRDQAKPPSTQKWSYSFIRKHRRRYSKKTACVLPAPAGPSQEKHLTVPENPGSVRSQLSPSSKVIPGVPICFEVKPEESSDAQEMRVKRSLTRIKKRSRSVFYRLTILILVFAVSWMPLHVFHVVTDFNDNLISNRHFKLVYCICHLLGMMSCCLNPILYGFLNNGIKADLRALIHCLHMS
Description: Radioligand competition binding. The note with it: HEK293 membranes expressing mNPY5; displacement of 100 pM [125I]labeled PYY; 1 h at 22° C.; read-out: NPY5-R (mouse) IC50. An excerpt: The full-length cDNA encoding the mouse NPY5 (mNPY5) receptor was amplified from mouse brain cDNA using specific primers, designed based on the published sequence, and Pfu DNA-Polymerase. The amplification product was subcloned into the mammalian expression vector pcDNA3 using Eco RI and XhoI restriction sites. Positive clones were sequenced and one clone, encoding the published sequence was selected for generation of stable cell clones. The sequence is published in Borowsky B., et al., “Molecular Biology and Pharmacology of Multiple NPY Y5 Receptor Species Homologs”, Regul. Pept. 75-76:45-53 (1998).
Human embryonic kidney 293 (HEK293) cells were transfected with 10 μg mNPY5 DNA using the lipofectamine reagent. Two days after transfection, geneticin selection (1 mg/ml) was initiated and several stable clones were isolated. One clone was further used for pharmacological characterization.
Human embryonic kidney 293 cells (HEK293), expressing recombinant mouse NPY5-receptor (mNPY5) were broken by three freeze/thawing cycles in hypotonic Tris buffer (5 mM, pH 7.4, 1 mM MgCl2), homogenized and centrifuged at 72,000×g for 15 min. The pellet was washed twice with 75 mM Tris buffer, pH 7.4, containing 25 mM MgCl2 and 250 mM sucrose, 0.1 mM phenylmethylsulfonylfluoride and 0.1 mM 1,10-pheneanthrolin, resuspended in the same buffer and stored in aliquots at −80° C. Protein was determined according to the method of Lowry using bovine serum albumine (BSA) as a standard. […]
In general terms: Displacement assays read how much labelled ligand stays bound in the presence of the test substance.
For `N#Cc1cccc(Nc2ncc(C(=O)c3ccc(F)cc3)s2)c1` [Example 8, 3-[5-(4-Fluoro-benzoyl)-thiazol-2-ylamino]-benzonitrile], the IC50 – broadly, the concentration that gives 50% inhibition – came out at 66 nM. `O=C(c1cnc(Nc2cccc(C(F)(F)F)c2)s1)c1ccccc1Cl` [Example 29, (2-Chloro-phenyl)-[2-(3-trifluoromethyl-phenylamino)-thiazol-5-yl]-methanone]: the IC50 is 8 nM. Take `CC(=O)c1cccc(Nc2ncc(C(=O)c3ccccc3C)s2)c1` [Example 61, 1-{3-[5-(2-Methyl-benzoyl)-thiazol-2-ylamino]-phenyl}-ethanone]: the IC50 amounted to 86 nM.
